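Protocol summary: plate cells (96-well), add compound at 5 concentrations, incubate 48 h, interpolate endpoints linearly. Here, GI50 denotes the concentration required for 50% inhibition of growth. TGI denotes the concentration required for complete inhibition of growth.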

For 5 compounds, GI50 and TGI results are on record in PubChem BioAssay (NCI).

Holding throughout (experiment): NCI tumour cell line growth inhibition, 48 h
For assay [1], the system named is A498 renal.
The test system of assay [2] is HCC-2998 colon.
The test system of assay [3] is K-562 leukemia.
Assay [4] concerns MALME-3M melanoma.
Assay [5] deals with MDA-MB-435.
The test system of assay [6] is NCI-H522 lung.
Assay [7] concerns NCI/ADR-RES ovarian.
Assay [8] has as its system SNB-19 CNS.
The subject of assay [9] is T-47D breast.
The test system of assay [10] is UO-31 renal.

Consider `COc1cc(C#N)cc(OC)c1OCCOCCOc1c(OC)cc(C#N)cc1OC`, for which the GI50 is 35.4 µM in [1]; > 100 µM in [2]; 11.7 µM in assay [3]; 58.1 µM in [4]; > 100 µM in assay [5]; 31.2 µM in assay [6]. The GI50 in assay [7] is 24.8 µM; in assay [8], 94.4 µM; in assay [9], 21.7 µM; in [10], 26.4 µM. For the same compound, the TGI was > 100 µM in [1]; > 100 µM in assay [2]; 37.1 µM in assay [3]; > 100 µM in assay [4]; > 100 µM in assay [5]; > 100 µM in assay [6]. Further, the TGI in assay [7], in assay [8], in assay [9] and in [10] was > 100 µM in each case.
`O=C(Nc1n[nH]c2nc(-c3ccco3)ccc12)C1CC1`: the GI50 in assay [1], in assay [2], in [3], in assay [4], in [5] and in assay [6] was > 25 µM each time. Moreover, the GI50 in assay [7], in assay [8], in [9] and in assay [10] was > 25 µM each time. In addition, the TGI in assay [1], in assay [2], in [3], in assay [4], in assay [5] and in assay [6] was > 25 µM in each case. In addition, the TGI in assay [7], in assay [8], in assay [9] and in assay [10] was > 25 µM throughout.
For `COc1ccc(/C=C2\CN(Cc3cn(CCCNc4ccnc5cc(Cl)ccc45)nn3)C/C(=C\c3ccc(OC)c(OC)c3)C2=O)cc1OC`, the GI50 in assay [1] is 1.17 µM; in [2], 1.41 µM; in [3] it was 0.459 µM; in assay [4] it was 1.75 µM; in [5], 1.12 µM; in assay [6], 1.32 µM. In addition, the GI50 was > 100 µM in assay [7], 1.85 µM in assay [8], 2.42 µM in assay [9] and 1.53 µM in assay [10]. Also, the TGI in assay [1] was determined as 2.58 µM; in assay [2], 2.9 µM; in assay [3], 3.64 µM; in [4], 3.54 µM; in assay [5], 5.32 µM; in assay [6], 3.06 µM. The TGI in assay [7] is > 100 µM; in [8] it was 7.62 µM; in assay [9] it was 9.42 µM; in [10], 2.88 µM.
`O=c1cc(-c2ccc(Cl)cc2)[nH]c2ncccc12`: the TGI in assay [1] was > 100 µM; in [2], > 100 µM; in assay [3], 76.1 µM; in assay [4], > 100 µM; in assay [5] it was 22.4 µM; in [6], > 100 µM. The TGI in assay [7], in assay [8], in [9] and in assay [10] was > 100 µM each time. In addition, the GI50 in [5] is 5.96 µM.
`O=C1OCc2c1cc(F)cc2[N+](=O)[O-]`: the GI50 in assay [1] was > 100 µM; in assay [2], > 100 µM; in [3], > 100 µM; in [4] it was 26.8 µM; in assay [5] it was > 100 µM; in assay [6], > 100 µM. The GI50 in assay [7], in assay [8], in [9] and in assay [10] was > 100 µM throughout. Also, the TGI in [1] was > 100 µM; in assay [2] it was > 100 µM; in assay [3], > 100 µM; in [4] it was 69.6 µM; in assay [5], > 100 µM; in [6], > 100 µM. In addition, the TGI in assay [7], in assay [8], in [9] and in [10] was > 100 µM each time.
